# From US8846928B2 (Portola Pharmaceuticals, Inc., priority 2010, dated 2014)
# pIC50: −log10 of the molar value.
# Molecular target: T1, full length active recombinant SYK enzyme (Homo sapiens, UniProt P43405)
# T1 construct: full length active recombinant SYK enzyme (Millipore, Calif.); purchased Millipore
# Assay: Inhibition of Syk tyrosine phosphorylation activity (LANCE TR-FRET kinase assay)
# Format: biochemical
row,pIC50,Compound
1,< 6.00,"CC(C)[C@@H](Nc1nc(Nc2cccc(-n3nccn3)c2)c(C(N)=O)cc1C#N)C(N)=O [Example 126, (R)-2-(3-(2H-1,2,3-triazol-2-yl)phenylamino)-6-(1-amino-3-methyl-1-oxobutan-2-ylamino)-5-cyanonicotinamide]"
2,8.00 to 9.00,NC(=O)c1cc(F)c(N[C@@H]2CCCC[C@@H]2N)nc1Nc1ccc2c(c1)OCCO2 [Example 78]
3,8.00 to 9.00,"CCC[C@@H](Nc1nc(Nc2cnc3ccccc3c2)c(C(N)=O)cc1F)C(N)=O [Example 199, (R)-6-(1-amino-1-oxopentan-2-ylamino)-5-fluoro-2-(quinolin-3-ylamino)nicotinamide]"
4,< 6.00,"NC(=O)c1ccc(N[C@@H]2CCNC2)nc1Nc1ccc2ncccc2c1 [Example 383, (R)-6-(pyrrolidin-3-ylamino)-2-(quinolin-6-ylamino)nicotinamide]"
5,< 6.00,"CC[C@H](Nc1nc(Nc2ccc(C)cc2)c(C(N)=O)cc1F)C1(N)CC1 [Example 370, (S)-6-(1-(1-aminocyclopropyl)propylamino)-5-fluoro-2-(p-tolylamino)nicotinamide]"
6,> 9.00,"Cn1ccc2c(Nc3nc(N[C@@H]4CCCC[C@@H]4N)c(F)cc3C(N)=O)cccc21 [Example 64, 6-((1R,2S)-2-aminocyclohexylamino)-5-fluoro-2-(1-methyl-1H-indol-4-ylamino)nicotinamide]"
7,7.00 to 8.00,"Cc1cc(Nc2cc(N[C@H](CC(C)C)C(N)=O)ccc2C(N)=O)sn1 [Example 9, (R)-4-(1-amino-4-methyl-1-oxopentan-2-ylamino)-2-(3-methylisothiazol-5-ylamino)benzamide]"
8,6.00 to 7.00,NC(=O)c1cc(F)c(N[C@@H]2CCCC[C@@H]2N)nc1Nc1ccnnc1 [Example 84]
9,8.00 to 9.00,"COC[C@H](CN)Nc1nc(Nc2cccc(-n3nccn3)c2)c(C(N)=O)cc1F [Example 91, (S)-2-(3-(2H-1,2,3-triazol-2-yl)phenylamino)-6-(1-amino-3-methoxypropan-2-ylamino)-5-fluoronicotinamide]"
10,7.00 to 8.00,"Cc1ccc(Nc2nc(N[C@@H]3CCOC[C@@H]3N)c(F)cc2C(N)=O)cc1 [Example 349, 6-((3R,4R)-3-aminotetrahydro-2H-pyran-4-ylamino)-5-fluoro-2-(p-tolylamino)nicotinamide]"
11,8.00 to 9.00,"NC(=O)c1cc(F)c(N[C@H]2[C@@H](N)CCCC2(F)F)nc1Nc1cccc(-n2cccn2)c1 [Example 341, 2-(3-(1H-pyrazol-1-yl)phenylamino)-6-((1S,6S)-6-amino-2,2-difluorocyclohexylamino)-5-fluoronicotinamide]"
12,6.00 to 7.00,"NC(=O)c1cc(F)c(N[C@@H]2CCCC[C@@H]2N)nc1Nc1cncnc1 [Example 152, 6-((1R,2S)-2-aminocyclohexylamino)-5-fluoro-2-(pyrimidin-5-ylamino)nicotinamide]"
13,8.00 to 9.00,"NC(=O)c1ccc(N[C@@H]2CCCC[C@@H]2N)nc1Nc1ccc2ccncc2c1 [Example 137, 2-(isoquinolin-7-ylamino)-6-((1R,2S)-2-aminocyclohexylamino)nicotinamide]"
14,7.00 to 8.00,"Cc1cc(Nc2nc(N[C@H](CC3CC3)C(N)=O)ccc2C(N)=O)sn1 [Example 211, (R)-6-(1-amino-3-cyclopropyl-1-oxopropan-2-ylamino)-2-(3-methylisothiazol-5-ylamino)nicotinamide]"
15,8.00 to 9.00,"Cc1cccc(Nc2nc(N[C@@H]3CCCC[C@@H]3N)ccc2C(N)=O)c1 [Example 102, 6-((1R,2S)-2-aminocyclohexylamino)-2-(m-tolylamino)nicotinamide]"
16,7.00 to 8.00,NC(=O)c1ccc(N[C@@H]2CCCC[C@@H]2N)nc1Nc1cnc2cc[nH]c2c1 [Example 407]
17,8.00 to 9.00,"NC(=O)c1ccc(N[C@@H]2CCOC[C@@H]2N)nc1Nc1ccc2ncccc2c1 [Example 276, 6-((3R,4R)-3-aminotetrahydro-2H-pyran-4-ylamino)-2-(quinolin-6-ylamino)nicotinamide]"
18,7.00 to 8.00,"NC(=O)c1cc(F)c(N[C@@H]2CCCC[C@@H]2N)nc1Nc1ccc(OC2CCOCC2)cc1 [Example 81, 6-((1R,2S)-2-aminocyclohexylamino)-5-fluoro-2-(4-(tetrahydro-2H-pyran-4-yloxy)phenylamino)nicotinamide]"
19,7.00 to 8.00,"CC(C)n1ccc2c(Nc3nc(N[C@@H]4CCCC(F)(F)[C@@H]4N)c(F)cc3C(N)=O)cccc21 [Example 391, 6-((1R,2R)-2-amino-3,3-difluorocyclohexylamino)-5-fluoro-2-(1-isopropyl-1H-indol-4-ylamino)nicotinamide]"
20,< 6.00,"NC(=O)c1cc(F)c(N[C@H]2CCCNC2)nc1Nc1ccc2ncccc2c1 [Example 143, (S)-5-fluoro-6-(piperidin-3-ylamino)-2-(quinolin-6-ylamino)nicotinamide]"
21,8.00 to 9.00,"CC[C@H](CN)Nc1nc(Nc2ccc3ncccc3c2)c(C(N)=O)cc1F [Example 94, (R)-6-(1-aminobutan-2-ylamino)-5-fluoro-2-(quinolin-6-ylamino)nicotinamide]"
22,6.00 to 7.00,NC(=O)c1cc(F)c(N[C@@H]2CCCC(F)(F)[C@@H]2N)nc1Nc1cccc(-n2nccn2)c1 [Example 293]
23,< 6.00,"NC(=O)c1cc(F)c(N[C@@H]2CCCC[C@@H]2N)nc1Nc1cncs1 [Example 177, 6-((1R,2S)-2-aminocyclohexylamino)-5-fluoro-2-(thiazol-5-ylamino)nicotinamide]"
24,7.00 to 8.00,"Cc1cc(Nc2cc(NC[C@H](C)N)ccc2C(N)=O)sn1 [Example 31, (S)-4-(2-aminopropylamino)-2-(3-methylisothiazol-5-ylamino)benzamide]"
25,< 6.00,"CN1C(=O)Cc2c(Nc3nc(N[C@@H]4CCCC(F)(F)[C@@H]4N)c(F)cc3C(N)=O)cccc21 [Example 395, 6-((1R,2R)-2-amino-3,3-difluorocyclohexylamino)-5-fluoro-2-(1-methyl-2-oxoindolin-4-ylamino)nicotinamide]"
26,6.00 to 7.00,"CC[C@H](N)CNc1ccc(C(N)=O)c(Nc2cc(C)ns2)c1 [Example 30, (S)-4-(2-aminobutylamino)-2-(3-methylisothiazol-5-ylamino)benzamide]"
27,> 9.00,"NC(=O)c1cc(F)c(N[C@@H]2CCCC[C@@H]2N)nc1Nc1ccc2cnccc2c1 [Example 67, 6-((1R,2S)-2-aminocyclohexylamino)-5-fluoro-2-(isoquinolin-6-ylamino)nicotinamide]"
28,8.00 to 9.00,"C[C@H](N)CNc1nc(Nc2cccc(-n3nccn3)c2)c(C(N)=O)cc1F [Example 257, (S)-2-(3-(2H-1,2,3-triazol-2-yl)phenylamino)-6-(2-aminopropylamino)-5-fluoronicotinamide]"
29,6.00 to 7.00,"CC[C@@H](Nc1nc(Nc2cccc(OC(F)(F)F)c2)c(C(N)=O)cc1F)C(N)=O [Example 263, (R)-6-(1-amino-1-oxobutan-2-ylamino)-5-fluoro-2-(3-(trifluoromethoxy)phenylamino)nicotinamide]"
30,7.00 to 8.00,"CC[C@H](CN)Nc1nc(Nc2cccc(-c3ncccn3)c2)c(C(N)=O)cc1F [Example 92, (R)-6-(1-aminobutan-2-ylamino)-5-fluoro-2-(3-(pyrimidin-2-yl)phenylamino)nicotinamide]"
